Measurements as given in US9783551B2, “Pyranochromenyl phenol derivative, and pharmaceutical composition for treating metabolic syndrome or inflammatory disease” (GLACEUM, INC., priority 2013, dated 2017).

Assays:
[1] = target: PTP1B (Homo sapiens (Human), UniProt P18031); experiment: Experiment of PTP1B inhibition (p-NPP dephosphorylation); type: biochemical; details: 2 mM p-NPP substrate, 30° C., 30 minutes
From the text: With respect to PTP1B, the degrees of inhibition (IC50 The half maximal inhibitory concentration) of glabridin, and compounds of Preparation Example 2 (Compound 1), Example 2 (Compound 3), Example 3 (Compound 4), Example 4 (Compound 5), Example 13 (Compound 14), Example 14 (Compound 15), Example 15 (Compound 16), Example 17 (Compound 18), Example 18 (Compound 19) and Example 20 (Compound 21) were compared to each other. For this purpose, the degree of inhibition activity for PTP1B was investigated by using 2 mM p-nitrophenyl phosphate (p-NPP) as a substrate to measure the dephosphorylation degree. First, PTP1B diluted with distilled water was reacted with 2 mM p-nitrophenyl phosphate {p-NPP, 0.1 M NaCl, 1 mM EDTA, 50 mM citrate pH 6.0, and 1 mM dithiothreitol (DTT)} and Compound 1 at various concentrations at 30° C. for 30 minutes, and then the reaction was terminated with a 1 N-sodium hydroxide (NaOH) solution. The absorbance of the samples thus prepared was measured to confirm the inhibition degree (IC50: The half maximal inhibitory concentration) for PTP1B activity according to the concentration of Compound 1. Even for glabridin, Compound 3, Compound 4, Compound 5, Compound 14, Compound 15, Compound 16, Compound 18, Compound 19, and Compound 21, the same measurement was performed.

[2] = tested on: DIO mice; experiment: Organ weights and blood biochemistry of DIO mice after 28 days of administration; type: in vivo, C57BL/6 mice
Experimental: (§1) Five-week-old female C57BL/6 mice (Narabio Co., Ltd.) were purchased and fed with only high-fat diet for at least 10 weeks to produce diet induced obesity ([…]) mice. Samples were exactly taken from Preparation Example 1 (glabridin) and the compounds of Examples of the present invention (Compounds 1 to 5, 7, 9, 11, 14 to 16, 21, and 23) according to the administration dose and put into Falcon tubes, 3 ml of a 0.5% methyl cellulose aqueous solution was added thereto and a vortex mixer was used to primarily mix the ingredients in a soft manner, and then a homogenizer (30,000 rpm, Ultra-Turrax® T10 Basic, IKA) was used to treat the sample for 3 minutes while 1.5 ml of a 0.5% methyl cellulose aqueous solution was added thereto. The sample thus prepared was administered through oral gavage using a disposable plastic syringe once daily for 28 days (4 weeks). The body weight was measured twice a week while the DIO mice were bred in this manner. Based on the data thus calculated, the anti-obesity effect (%) was calculated according to the equation defined as follows. Anti-Obesity Effect={(Body weight of control group)−(Body weight of experimental group)}/(Body weight of control group)×100
After the experiment was performed for 28 days (4 weeks) as described above, blood was simultaneously taken while the experimental animal was finally sacrificed, and each of the organs (liver, heart, kidney, pancreas, fat tissues and the like) was removed to measure the weight and observe peculiar matters.
In Table 3, { }, ( ) and the like were used in order to differentiate experiments which had been performed at different periods. Experiments without the parenthesis were those simultaneously performed under the same conditions.

[3] = tested on: DIO mice; experiment: Anti-obesity effect for DIO mice (body weight); type: in vivo, C57BL/6 mice; details: Mus musculus, 672 h, 4 weeks, oral gavage once daily
Experimental: as §1

[4] = tested on: RAW264.7 macrophages; experiment: RAW264.7 macrophage NO assay (LPS-induced NO production, Griess reagent); type: cell-based
Experimental: (§2) After the pretreatment, the MTT (Sigma, M2128) reagent at a concentration of 0.5 mg/ml was further added thereto. After the cells were cultured in a 5% CO2 incubator for 4 hours, the supernatant was discarded, 150 μl of DMSO was added and was shaken for 30 minutes, and an ELISA micro plate reader (Bio Rad Laboratories Inc., California, USA, Model 680) was used to measure the absorbance at a wavelength of 540 nm. All the experimental values were calculated as an average value of three repeated experimental values of the cell protection rate for the control group, and an experiment of suppressing the NO production for each compound was carried out at a concentration in which no cytotoxicity was shown.
After the reaction, an ELISA micro plate reader (Bio Rad Laboratories Inc., California, USA, Model 680) was used to measure the absorbance at a wavelength of 540 nm. The suppression rate was calculated as a difference in amount of NO produced between the control group and the experimental group, and as shown in the following Table 7, Compounds 4, 5, 15, 16, 18, and the like of the present invention were excellent in the effect of suppressing the production of NO.

[5] = tested on: BV2 microglia cells; experiment: BV2 cell NO assay (LPS-induced NO production, Griess reagent); type: cell-based; details: Mus musculus, BV-2, LPS 1 μg/ml, 24 hours
Experimental: as §2, with “pretreatment, 0.5 mg/ml of” for “pretreatment,”, “reagent” for “reagent at a concentration of 0.5 mg/ml”, “incubator,” for “incubator for 4 hours,”
After the reaction, an ELISA micro plate reader (Bio Rad Laboratories Inc., California, USA, Model 680) was used to measure the absorbance at a wavelength of 540 nm. The suppression rate was calculated as a difference in amount of NO produced between the control group and the experimental group, and as shown in the following Table 6 and FIG. 6, Compounds 4, 5, 15, 16, 18, and the like of the present invention were excellent in the effect of suppressing the production of NO, and the effect is also about 5 times to about 9 times better than that of glabridin.

[6] = 150 mg/kg, experiment without parenthesis

Sequence of PTP1B (P18031 whole entry, species assumed): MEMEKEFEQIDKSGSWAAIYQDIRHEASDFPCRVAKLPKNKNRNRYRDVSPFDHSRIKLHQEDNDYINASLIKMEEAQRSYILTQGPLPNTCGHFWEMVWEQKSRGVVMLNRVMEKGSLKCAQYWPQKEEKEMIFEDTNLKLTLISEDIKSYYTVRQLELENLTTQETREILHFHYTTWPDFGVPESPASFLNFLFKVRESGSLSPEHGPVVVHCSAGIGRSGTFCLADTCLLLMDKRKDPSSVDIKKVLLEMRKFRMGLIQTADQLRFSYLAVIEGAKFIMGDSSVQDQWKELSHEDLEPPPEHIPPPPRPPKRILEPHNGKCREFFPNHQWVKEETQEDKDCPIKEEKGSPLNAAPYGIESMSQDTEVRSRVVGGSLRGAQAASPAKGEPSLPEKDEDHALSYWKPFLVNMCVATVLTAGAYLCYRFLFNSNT

## CC1(C)CCc2c(ccc3c2OC[C@@H](c2ccc(O)cc2O)C3)O1 [Compound 1, 3″,4″-dihydroglabridin]
[1]
  IC50: 46 µM
[2]; [6]
  ALT (U/L): 34 U/L
  AST (U/L): 93 U/L
  BMI: 3.8
  FFA (μEq/L): 1400 μEq/L
  Fat (g), weight of fat removed around the epididymis and the kidney: 2.07 g
  LDL: 11 mg/dL
  Liver (g), weight of liver: 1.24 g
[3]
  inhibition in vivo at 150 mg/kg: 8%

## CC1(C)CCc2c(ccc3c2OCC(c2ccccc2O)C3)O1 (stereo not shown) [Compound 2, 3-(2-hydroxyphenyl)-8,8-dimethyl-2,3,4,8,9,10-hexahydropyrano [2,3-f] chromene]
[3]
  inhibition in vivo at 200 mg/kg: 8%

## Cc1ccc(C2COc3c(ccc4c3CCC(C)(C)O4)C2)c(O)c1 (stereo not shown) [Compound 3, 3-(2-hydroxy-4-methylphenyl)-8,8-dimethyl-2,3,4,8,9,10-hexahydropyrano [2,3-f] chromene]
[1]
  IC50: 7 µM
[2]; 200 mg/kg, { } experiment
  ALT (U/L): {73} U/L
  AST (U/L): {152} U/L
  BMI: {3.5}
  FFA (μEq/L): {2390} μEq/L
  Fat (g), weight of fat removed around the epididymis and the kidney: {1.62} g
  LDL (mg/dL): {22} mg/dL
  Liver (g), weight of liver: {1.53} g
[3]
  inhibition in vivo at 200 mg/kg: 19%

## CCCCc1ccc(C2COc3c(ccc4c3CCC(C)(C)O4)C2)c(O)c1 (stereo not shown) [Compound 7, 3-(2-hydroxy-4-butylphenyl)-8,8-dimethyl-2,3,4,8,9,10-hexahydropyrano [2,3-f] chromene]
[3]
  inhibition in vivo at 150 mg/kg: 14%

## COCCc1ccc(C2COc3c(ccc4c3CCC(C)(C)O4)C2)c(O)c1 (stereo not shown) [Compound 9, 3-(2-hydroxy-4-(2-methoxyethyl)phenyl)-8,8-dimethyl-2,3,4,8,9,10-hexahydropyrano [2,3-f] chromene]
[3]
  inhibition in vivo at 150 mg/kg: 10%

## Cc1cc(O)c(C2COc3c(ccc4c3CCC(C)(C)O4)C2)cc1C (stereo not shown) [Compound 11, 3-(2-hydroxy-4,5-dimethylphenyl)-8,8-dimethyl-2,3,4,8,9,10-hexahydropyrano [2,3-f] chromene]
[3]
  inhibition in vivo at 150 mg/kg: 8%

## COc1ccc(C2COc3c(ccc4c3CCC(C)(C)O4)C2)c(O)c1 (stereo not shown) [Compound 14, 3-(2-hydroxy-4-methoxyphenyl)-8,8-dimethyl-2,3,4,8,9,10-hexahydropyrano [2,3-f] chromene]
[1]
  IC50: 6.5 µM
[2]; [6]
  ALT (U/L): 51 U/L
  AST (U/L): 131 U/L
  BMI: 3.9
  FFA (μEq/L): 2160 μEq/L
  Fat (g), weight of fat removed around the epididymis and the kidney: 2.23 g
  LDL: 13 mg/dL
  Liver (g), weight of liver: 1.19 g
[3]
  inhibition in vivo at 150 mg/kg: 12%

## CCCCOc1ccc(C2COc3c(ccc4c3CCC(C)(C)O4)C2)c(O)c1 (stereo not shown) [Compound 18, 3-(2-hydroxy-4-butoxyphenyl)-8,8-dimethyl-2,3,4,8,9,10-hexahydropyrano [2,3-f] chromene]
[4]; Mus musculus, RAW264.7, NO production, LPS 1 μg/ml, 24 hours
  IC50: 5.6 µM
[4]; RAW264.7 macrophages, in words
  effect of suppressing the production of NO: excellent
[1]
  IC50: 3.4 µM
[5]
  IC50: 2.8 µM

## CCCCCOc1ccc(C2COc3c(ccc4c3CCC(C)(C)O4)C2)c(O)c1 (stereo not shown) [Compound 19, 3-(2-hydroxy-4-n-pentoxyphenyl)-8,8-dimethyl-2,3,4,8,9,10-hexahydropyrano [2,3-f] chromene]
[1]
  IC50: 1.2 µM

## COCOc1ccc(C2COc3c(ccc4c3CCC(C)(C)O4)C2)c(O)c1 (stereo not shown) [Compound 21, 3-(2-hydroxy-4-(methoxymethoxy)phenyl)-8,8-dimethyl-2,3,4,8,9,10-hexahydropyrano [2,3-f] chromene]
[1]
  IC50: 2.3 µM
[2]; [6]
  ALT (U/L): 46 U/L
  AST (U/L): 104 U/L
  BMI: 3.6
  FFA (μEq/L): 1520 μEq/L
  Fat (g), weight of fat removed around the epididymis and the kidney: 2.13 g
  LDL: 12 mg/dL
  Liver (g), weight of liver: 1.11 g
[3]
  inhibition in vivo at 150 mg/kg: 16%

## CCC1(CC)CCc2c(ccc3c2OCC(c2ccc(OC)cc2O)C3)O1 (stereo not shown) [Compound 23, 3-(2-hydroxy-4-methoxyphenyl)-8,8-diethyl-2,3,4,8,9,10-hexahydropyrano [2,3-f] chromene]
[3]
  inhibition in vivo at 200 mg/kg: 11%
